In ChEMBL document CHEMBL4715821, “Discovery of 4-ethoxy-7H-pyrrolo[2,3-d]pyrimidin-2-amines as potent, selective and orally bioavailable LRRK2 inhibitors” (Bioorg Med Chem Lett, 2018) one finds Activity data, which are given here for one compound.

Assay [1] concerns the target Serine/threonine-protein kinase 38-like (Homo sapiens) (UniProt Q9Y2H1). Briefly: Inhibition of wild-type human partial length NDR2 (N34 to E447 residues) expressed in bacterial expression system assessed as residual activity at 1 uM by Kinomescan method relative to control.
Assay [2] addresses Calcium/calmodulin-dependent protein kinase type 1B (Homo sapiens) (UniProt Q6P2M8). Briefly: Inhibition of wild-type human partial length CAMK1B (W9 to A311 residues) expressed in mammalian expression system assessed as residual activity at 1 uM by Kinomescan method relative to control.
The target in assay [3] is G protein-coupled receptor kinase 3 (Homo sapiens) (UniProt P35626). Put plainly: Inhibition of wild-type human full length GRK3 (M1 to L688 residues) expressed in mammalian expression system assessed as residual activity at 1 uM by Kinomescan method relative to control.
G protein-coupled receptor kinase 3 (Homo sapiens), sequence (P35626 whole entry, the tested form may be a part): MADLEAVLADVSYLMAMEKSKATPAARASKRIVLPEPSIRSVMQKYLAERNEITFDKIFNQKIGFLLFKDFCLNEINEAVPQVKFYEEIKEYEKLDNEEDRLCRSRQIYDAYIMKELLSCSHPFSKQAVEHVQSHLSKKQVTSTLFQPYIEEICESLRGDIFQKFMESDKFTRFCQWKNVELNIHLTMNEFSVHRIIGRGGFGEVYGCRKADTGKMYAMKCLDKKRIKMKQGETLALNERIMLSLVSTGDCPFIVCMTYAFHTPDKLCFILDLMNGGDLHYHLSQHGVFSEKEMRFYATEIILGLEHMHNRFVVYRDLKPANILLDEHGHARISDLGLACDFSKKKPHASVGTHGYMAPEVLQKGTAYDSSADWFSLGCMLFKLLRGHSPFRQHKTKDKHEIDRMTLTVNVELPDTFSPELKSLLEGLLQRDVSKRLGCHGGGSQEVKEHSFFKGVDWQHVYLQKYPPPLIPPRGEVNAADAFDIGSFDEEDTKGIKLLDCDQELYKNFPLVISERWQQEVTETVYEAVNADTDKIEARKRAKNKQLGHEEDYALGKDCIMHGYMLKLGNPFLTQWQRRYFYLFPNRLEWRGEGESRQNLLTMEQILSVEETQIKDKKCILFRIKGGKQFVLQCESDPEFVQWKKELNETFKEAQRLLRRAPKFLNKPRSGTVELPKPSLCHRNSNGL
For assay [4], the target named is Protein kinase C epsilon type (Homo sapiens) (UniProt Q02156). Briefly: Inhibition of PKCepsilon (unknown origin) assessed as residual activity at 1 uM by Kinomescan method relative to control.
Protein kinase C epsilon type (Homo sapiens), sequence (Q02156 whole entry): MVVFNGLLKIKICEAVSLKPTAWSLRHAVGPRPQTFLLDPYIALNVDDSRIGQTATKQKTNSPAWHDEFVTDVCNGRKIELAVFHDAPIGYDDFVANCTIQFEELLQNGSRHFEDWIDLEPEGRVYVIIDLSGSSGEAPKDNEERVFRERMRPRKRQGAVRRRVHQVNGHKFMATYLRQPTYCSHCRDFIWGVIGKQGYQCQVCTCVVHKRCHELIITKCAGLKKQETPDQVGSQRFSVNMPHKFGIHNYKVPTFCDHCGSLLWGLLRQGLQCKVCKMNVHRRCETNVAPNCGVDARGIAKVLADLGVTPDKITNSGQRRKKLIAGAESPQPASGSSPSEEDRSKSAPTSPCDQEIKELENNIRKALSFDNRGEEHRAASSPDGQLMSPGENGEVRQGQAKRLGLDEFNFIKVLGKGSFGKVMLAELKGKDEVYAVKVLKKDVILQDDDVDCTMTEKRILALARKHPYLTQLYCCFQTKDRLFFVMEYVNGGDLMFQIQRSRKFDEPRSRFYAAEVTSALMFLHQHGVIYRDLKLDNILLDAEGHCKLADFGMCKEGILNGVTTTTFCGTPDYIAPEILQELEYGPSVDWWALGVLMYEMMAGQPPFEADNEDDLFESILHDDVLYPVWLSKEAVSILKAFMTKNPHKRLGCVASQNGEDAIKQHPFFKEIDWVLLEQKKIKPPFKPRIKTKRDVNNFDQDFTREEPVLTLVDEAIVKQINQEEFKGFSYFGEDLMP
The target of assay [5] is Mitogen-activated protein kinase kinase kinase 2 (Homo sapiens) (UniProt Q9Y2U5). Briefly: Inhibition of MEKK2 (unknown origin) assessed as residual activity at 1 uM by Kinomescan method relative to control.
Mitogen-activated protein kinase kinase kinase 2 (Homo sapiens), sequence (Q9Y2U5 whole entry, the tested form may be a part): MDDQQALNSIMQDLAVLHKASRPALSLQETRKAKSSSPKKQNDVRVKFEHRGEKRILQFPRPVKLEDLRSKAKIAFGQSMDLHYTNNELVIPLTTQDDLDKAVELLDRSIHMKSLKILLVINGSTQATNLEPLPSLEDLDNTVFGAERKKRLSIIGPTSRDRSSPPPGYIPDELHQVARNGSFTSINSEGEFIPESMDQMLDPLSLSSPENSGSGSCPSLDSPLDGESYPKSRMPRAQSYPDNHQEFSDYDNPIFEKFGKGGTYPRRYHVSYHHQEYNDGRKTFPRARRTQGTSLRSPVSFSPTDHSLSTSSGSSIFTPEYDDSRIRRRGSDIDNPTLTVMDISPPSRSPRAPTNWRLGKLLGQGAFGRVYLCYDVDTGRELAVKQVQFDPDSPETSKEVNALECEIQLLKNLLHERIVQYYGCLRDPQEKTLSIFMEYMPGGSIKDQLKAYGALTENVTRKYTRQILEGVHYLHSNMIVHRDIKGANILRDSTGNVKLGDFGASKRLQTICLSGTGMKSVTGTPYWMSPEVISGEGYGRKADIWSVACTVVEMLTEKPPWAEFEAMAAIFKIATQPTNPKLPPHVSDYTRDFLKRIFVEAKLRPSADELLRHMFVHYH
Assay [6] deals with Serine/threonine-protein kinase 24 (Homo sapiens) (UniProt Q9Y6E0). Put plainly: Inhibition of wild-type human partial length MST3 (A30 to S311 residues) expressed in bacterial expression system assessed as residual activity at 1 uM by Kinomescan method relative to control.
Serine/threonine-protein kinase 24 (Homo sapiens), sequence (Q9Y6E0 whole entry, looked up, the tested form may be a part): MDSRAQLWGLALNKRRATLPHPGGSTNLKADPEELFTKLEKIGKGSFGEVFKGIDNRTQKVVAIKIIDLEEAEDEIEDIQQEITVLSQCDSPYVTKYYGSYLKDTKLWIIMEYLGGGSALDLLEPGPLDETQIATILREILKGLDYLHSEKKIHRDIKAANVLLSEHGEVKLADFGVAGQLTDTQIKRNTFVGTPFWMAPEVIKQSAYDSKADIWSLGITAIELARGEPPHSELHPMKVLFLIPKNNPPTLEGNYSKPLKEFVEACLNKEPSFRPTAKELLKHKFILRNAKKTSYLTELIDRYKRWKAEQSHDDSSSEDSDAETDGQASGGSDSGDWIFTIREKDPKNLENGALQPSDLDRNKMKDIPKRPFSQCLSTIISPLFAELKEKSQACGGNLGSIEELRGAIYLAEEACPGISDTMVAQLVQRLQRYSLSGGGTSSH
Assay [7] concerns the target T1, Mitogen-activated protein kinase kinase kinase kinase 3 (Homo sapiens) (UniProt Q8IVH8).
T1 sequence (whole entry): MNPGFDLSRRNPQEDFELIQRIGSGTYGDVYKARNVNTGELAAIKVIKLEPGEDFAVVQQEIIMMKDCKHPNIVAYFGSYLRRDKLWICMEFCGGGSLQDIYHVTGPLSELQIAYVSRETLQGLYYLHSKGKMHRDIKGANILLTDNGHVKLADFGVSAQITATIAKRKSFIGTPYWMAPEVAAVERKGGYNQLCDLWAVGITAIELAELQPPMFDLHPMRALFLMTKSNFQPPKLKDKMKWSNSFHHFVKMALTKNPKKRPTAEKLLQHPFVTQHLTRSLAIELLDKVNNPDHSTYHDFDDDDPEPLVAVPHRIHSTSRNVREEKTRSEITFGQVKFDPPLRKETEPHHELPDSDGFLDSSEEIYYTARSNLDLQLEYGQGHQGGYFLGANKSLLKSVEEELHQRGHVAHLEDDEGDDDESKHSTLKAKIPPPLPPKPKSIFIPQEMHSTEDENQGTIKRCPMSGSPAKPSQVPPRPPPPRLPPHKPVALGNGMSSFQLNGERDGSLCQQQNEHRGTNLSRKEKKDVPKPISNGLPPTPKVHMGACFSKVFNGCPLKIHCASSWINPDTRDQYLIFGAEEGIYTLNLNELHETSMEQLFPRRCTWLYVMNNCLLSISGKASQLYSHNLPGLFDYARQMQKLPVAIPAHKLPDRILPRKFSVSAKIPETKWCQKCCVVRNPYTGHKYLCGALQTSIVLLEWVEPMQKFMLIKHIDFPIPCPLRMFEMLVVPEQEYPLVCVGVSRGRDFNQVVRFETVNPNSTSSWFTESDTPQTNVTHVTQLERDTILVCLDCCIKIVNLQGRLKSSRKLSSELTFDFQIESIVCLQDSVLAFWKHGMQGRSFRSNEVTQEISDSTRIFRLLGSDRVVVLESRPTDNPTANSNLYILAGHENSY
Briefly: Inhibition of wild-type human partial length MAP4K3 (M1 to D301 residues) expressed in bacterial expression system assessed as residual activity at 1 uM by Kinomescan method relative to control.

For assay [8], the target named is Mitogen-activated protein kinase 11 (Homo sapiens) (UniProt Q15759). Briefly: Inhibition of wild-type human full length p38-beta (M1 to Q364 residues) expressed in bacterial expression system assessed as residual activity at 1 uM by Kinomescan method relative to control.
Assay [9] has as its target Serine/threonine-protein kinase Nek7 (Homo sapiens) (UniProt Q8TDX7). Briefly: Inhibition of wild-type human full length NEK7 (M1 to S302 residues) expressed in bacterial expression system assessed as residual activity at 1 uM by Kinomescan method relative to control.
Assay [10] addresses Dual specificity tyrosine-phosphorylation-regulated kinase 1A (Homo sapiens) (UniProt Q13627). Put plainly: Inhibition of wild-type human partial length DYRK1A (H129 to S509 residues) expressed in mammalian expression system assessed as residual activity at 1 uM by Kinomescan method relative to control.
In assay [11] the target is cAMP-dependent protein kinase catalytic subunit gamma (Homo sapiens) (UniProt P22612). Briefly: Inhibition of PKAcg (unknown origin) assessed as residual activity at 1 uM by Kinomescan method relative to control.
cAMP-dependent protein kinase catalytic subunit gamma (Homo sapiens), sequence (P22612 2-351 limits assumed): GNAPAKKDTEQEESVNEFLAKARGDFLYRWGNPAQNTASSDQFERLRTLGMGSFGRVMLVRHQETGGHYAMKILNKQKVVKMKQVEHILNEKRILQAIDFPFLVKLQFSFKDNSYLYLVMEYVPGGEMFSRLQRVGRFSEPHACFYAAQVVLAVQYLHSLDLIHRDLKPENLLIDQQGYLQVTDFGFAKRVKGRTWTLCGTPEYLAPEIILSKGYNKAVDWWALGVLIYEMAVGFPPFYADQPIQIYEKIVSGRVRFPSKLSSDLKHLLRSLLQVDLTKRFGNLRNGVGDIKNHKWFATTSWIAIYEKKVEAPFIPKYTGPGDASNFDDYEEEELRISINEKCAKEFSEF
Assay [12] has as its target CDK2/Cyclin A1 (Homo sapiens) (UniProt P24941+P78396). Briefly: Inhibition of CDK2/Cyclin A1 (unknown origin) assessed as residual activity at 1 uM by Kinomescan method relative to control. It counts as protein-complex assay.
Assay [13] addresses Mitogen-activated protein kinase kinase kinase 7 (Homo sapiens) (UniProt O43318). Briefly: Inhibition of wild-type human partial length TAK1 (M1 to Q303 residues) expressed in mammalian expression system assessed as residual activity at 1 uM by Kinomescan method relative to control.
Assay [14] addresses Mitogen-activated protein kinase 3 (Homo sapiens) (UniProt P27361). Briefly: Inhibition of wild-type human full length ERK1 (M1 to P379 residues) expressed in bacterial expression system assessed as residual activity at 1 uM by Kinomescan method relative to control.
In assay [15] the target is Serine/threonine-protein kinase Nek6 (Homo sapiens) (UniProt Q9HC98). Briefly: Inhibition of wild-type human full length NEK6 (M8 to T313 residues) expressed in bacterial expression system assessed as residual activity at 1 uM by Kinomescan method relative to control.
Serine/threonine-protein kinase Nek6 (Homo sapiens), sequence (Q9HC98 whole entry, the tested form may be a part): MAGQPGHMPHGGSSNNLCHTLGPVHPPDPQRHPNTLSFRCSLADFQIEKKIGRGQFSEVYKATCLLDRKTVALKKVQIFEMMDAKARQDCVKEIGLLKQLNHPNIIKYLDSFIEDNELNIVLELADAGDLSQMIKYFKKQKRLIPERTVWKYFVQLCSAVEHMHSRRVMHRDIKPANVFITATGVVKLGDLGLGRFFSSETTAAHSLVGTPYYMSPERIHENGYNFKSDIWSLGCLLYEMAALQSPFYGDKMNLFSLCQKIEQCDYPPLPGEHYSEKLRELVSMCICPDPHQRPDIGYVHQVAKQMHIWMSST
The target of assay [16] is Muscle, skeletal receptor tyrosine-protein kinase (Homo sapiens) (UniProt O15146). Briefly: Inhibition of wild-type human partial length MUSK (M553 to V869 residues) expressed in bacterial expression system assessed as residual activity at 1 uM by Kinomescan method relative to control.
Assay [17] deals with Activin receptor type-1-like (Homo sapiens) (UniProt P37023). Put plainly: Inhibition of wild-type human partial length ACVRL1 (L164 to Q503 residues) expressed in bacterial expression system assessed as residual activity at 1 uM by Kinomescan method relative to control.
Activin receptor type-1-like (Homo sapiens), sequence (P37023 whole entry, the tested form may be a part): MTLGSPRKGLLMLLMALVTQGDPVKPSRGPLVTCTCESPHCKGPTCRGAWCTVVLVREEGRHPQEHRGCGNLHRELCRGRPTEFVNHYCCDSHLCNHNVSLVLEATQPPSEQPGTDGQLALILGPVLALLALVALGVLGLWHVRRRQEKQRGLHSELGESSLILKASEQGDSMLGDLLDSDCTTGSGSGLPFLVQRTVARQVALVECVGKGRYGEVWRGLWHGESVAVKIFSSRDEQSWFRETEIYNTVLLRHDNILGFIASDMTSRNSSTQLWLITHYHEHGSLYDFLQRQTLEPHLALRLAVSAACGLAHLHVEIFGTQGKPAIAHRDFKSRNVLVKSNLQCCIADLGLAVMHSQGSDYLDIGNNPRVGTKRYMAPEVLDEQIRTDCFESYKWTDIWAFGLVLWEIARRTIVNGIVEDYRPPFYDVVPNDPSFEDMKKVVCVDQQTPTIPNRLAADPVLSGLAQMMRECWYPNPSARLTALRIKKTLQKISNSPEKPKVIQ
The target of assay [18] is Serine/threonine-protein kinase MRCK alpha (Homo sapiens) (UniProt Q5VT25). Briefly: Inhibition of wild-type human partial length MRCKA (L57 to V418 residues) expressed in bacterial expression system assessed as residual activity at 1 uM by Kinomescan method relative to control.
Assay [19] has as its target CDK2/Cyclin A2 (Homo sapiens) (UniProt P24941+P20248). Put plainly: Inhibition of wild-type human full length CDK2 (M1 to L298 residues)/Cyclin A expressed in bacterial expression system assessed as residual activity at 1 uM by Kinomescan method relative to control.

The structures appear in SMILES notation.

Serine/threonine-protein kinase 38-like (Homo sapiens), sequence (Q9Y2H1 2-464 limits assumed): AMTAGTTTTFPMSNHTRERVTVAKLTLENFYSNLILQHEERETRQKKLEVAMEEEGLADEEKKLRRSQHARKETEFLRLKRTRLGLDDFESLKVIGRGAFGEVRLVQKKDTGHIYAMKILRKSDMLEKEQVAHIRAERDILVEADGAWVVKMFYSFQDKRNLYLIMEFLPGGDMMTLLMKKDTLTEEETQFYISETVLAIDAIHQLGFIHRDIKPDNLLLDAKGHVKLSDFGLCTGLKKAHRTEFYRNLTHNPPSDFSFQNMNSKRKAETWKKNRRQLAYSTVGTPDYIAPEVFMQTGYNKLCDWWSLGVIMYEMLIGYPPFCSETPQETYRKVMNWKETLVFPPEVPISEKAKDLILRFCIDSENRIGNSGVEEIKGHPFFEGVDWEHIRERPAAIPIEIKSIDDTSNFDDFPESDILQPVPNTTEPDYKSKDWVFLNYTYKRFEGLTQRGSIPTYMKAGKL
Mitogen-activated protein kinase 3 (Homo sapiens), sequence (P27361 whole entry, the tested form may be a part): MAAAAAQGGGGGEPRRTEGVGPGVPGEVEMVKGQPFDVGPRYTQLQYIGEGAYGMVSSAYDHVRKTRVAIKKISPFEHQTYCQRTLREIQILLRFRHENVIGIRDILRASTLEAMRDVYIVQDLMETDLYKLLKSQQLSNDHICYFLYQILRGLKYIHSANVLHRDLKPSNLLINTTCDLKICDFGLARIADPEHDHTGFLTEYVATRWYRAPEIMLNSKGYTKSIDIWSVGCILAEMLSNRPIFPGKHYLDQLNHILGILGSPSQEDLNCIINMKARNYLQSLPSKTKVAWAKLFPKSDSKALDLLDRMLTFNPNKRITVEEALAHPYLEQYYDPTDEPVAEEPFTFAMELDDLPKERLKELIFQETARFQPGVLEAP
Serine/threonine-protein kinase Nek7 (Homo sapiens), sequence (Q8TDX7 whole entry, looked up, the tested form may be a part): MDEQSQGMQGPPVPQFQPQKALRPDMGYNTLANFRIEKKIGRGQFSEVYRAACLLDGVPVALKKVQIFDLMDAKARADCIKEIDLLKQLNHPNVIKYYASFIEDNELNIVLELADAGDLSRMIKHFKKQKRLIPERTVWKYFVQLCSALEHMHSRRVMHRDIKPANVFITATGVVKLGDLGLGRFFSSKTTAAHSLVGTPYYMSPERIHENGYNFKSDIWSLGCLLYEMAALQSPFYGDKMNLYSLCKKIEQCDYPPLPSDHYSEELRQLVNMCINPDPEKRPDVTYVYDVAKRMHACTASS

Regarding `CCOc1nc(Nc2ccc(C(=O)N3CCOCC3)cc2OC)nc2[nH]ccc12`, the Activity in [1] was 96.8%; in assay [2], 117%; in [3], 97.2%; in [4], 95%; in assay [5], 99.3%; in [6] it was 97.4%. Besides, the Activity in assay [7] stood at 88.9%; in assay [8], 101%; in assay [9], 97.7%; in assay [10] it was 72.2%; in assay [11] it was 110%; in assay [12] it was 74%. The Activity in assay [13] was found to be 87.5%; in assay [14], 95.7%; in assay [15], 96.8%; in assay [16] it was 72.9%; in [17], 74%; in assay [18], 99.4%. The Activity in assay [19] is 94.9%.
